Results published in US20240366624A1, “METHODS AND COMPOSITIONS FOR TREATING THROMBOTIC DISEASE” (Washington University, priority 2023, published 2024).
“Also recorded” adds a separate entry of the source.

What was measured:
human platelets = assay: Platelet aggregation, human platelets; format: cell-based; settings: 3 to 10 μM
Procedure: FIG. 9(A-C) is an exemplary embodiment of EN460 inhibiting thrombin-induced aggregation of mouse and human platelets in accordance with the present disclosure. (A) Human (FIG. 9A), WT (FIG. 9B), and Ero1α-null (FIG. 9C) platelets were pretreated with EN460, an ERO1α inhibitor, at 1, 3, or 10 μM, and treated with 0.025 U/ml thrombin to induce platelet aggregation. The data represent the mean±SD (n=3). P values determined by ANOVA and Dunnett's test (FIG. 9(A-B)) or Student's t-test (FIG. 9C).
FIG. 10(A-E) is an exemplary embodiment of 15E9 not affecting platelet activation and aggregation in accordance with the present disclosure. Mouse platelets were treated with 0.02-0.03 (FIG. 10A P-selectin, FIG. 10B aIIbβ3) or 0.025 U/ml thrombin (FIG. 10C) in the presence of 10 μg/ml mouse IgG2a (IgG2a) or a blocking anti-ERO1α antibody (15E9). Flow cytometry (FIG. 10(A-B)) and aggregation (FIG. 10C) assays were performed. FIG. 10D: Human platelets were treated with 0.025 U/ml thrombin in the presence of mouse IgG2a (mIgG2a) or 10 μg/ml 15E9 and 16B6, followed by measuring aggregation. FIG. 10E: WT and Ero1α null platelets were treated with 10 μg/ml mouse IgG1 (mIgG1) or a blocking anti-PDI antibody (BD34), followed by measuring aggregation induced by 0.025 U/ml thrombin. The data represent the mean±SD (n=3). P values determined by unpaired Student's t-test (vs. mIgG1).

WT (C57BL/6) mice = assay: Transient middle cerebral artery occlusion (tMCAO) ischemic stroke model; format: in vivo, mouse; settings: single iv 5 μg/g BW after tMCAO, 23 hours later
Procedure: FIG. 19(A-Q) is an exemplary embodiment of B12-5 having an antithrombotic effect without prolonging tail bleeding times in mice in accordance with the present disclosure. FIG. 19(A-C): Ex vivo effects of B12-5. Wild type (WT; C57BL/6) mice were treated with intravenous injection of vehicle (20% polyethylene glycol [PEG]+3% dimethyl sulfoxide [DMSO]) or B12-5 (5 μg/g body weight [BW]). One hour later, blood was drawn, followed by isolating platelets. P-selectin exposure (FIG. 19A) and αIIbβ3 integrin activation (FIG. 19B) were assessed in flow cytometry. FIG. 19C: Platelet aggregation was measured after treatment with 0.025 U/mL thrombin. The data represent the mean±SD (n=4). FIG. 19D: The plasma levels of B12-5 were analyzed by liquid chromatography-tandem mass spectrometry (LC-MS/MS) after intravenous injection of the compound (5 μg/g BW) into WT mice and quantified by comparison with a standard curve of B12-5 (mean±SD, n=3). FIG. 19E and FIG. 19F: After laser-induced cremaster arteriolar injury, intravital microscopy was conducted with WT mice pretreated with intravenous injection of saline, eptifibatide (5 μg/g BW), vehicle, or B12-5 (5 μg/g BW). The median integrated fluorescence intensities of anti-CD42c (F platelet) and anti-fibrin (F fibrin) antibodies (n=37-42 arterioles in 6 mice per group). Quantification of the antibody signal at a different time point after laser injury. FIG. 19G: Comparison of B12-5 (5 μg/g BW) with eptifibatide (5 μg/g BW) and their respective controls in inhibiting FeCl3-induced carotid artery thrombosis in WT mice. FIG. 19H and FIG. 19I: WT mice were treated with intravenous injection of vehicle control, eptifibatide (5 μg/g BW), or B12-5 (5 μg/g BW). Thirty minutes later, tail bleeding times and Hb contents were measured after amputation of the tail tip. Bars represent the median value (FIG. 19(E-1)). FIG. 19J and FIG. 19M: WT control and Ero1α conditional knockout (CKO) and knockout (KO) mice were subjected to transient middle cerebral artery occlusion (tMCAO). Twenty-three hours later, neurological deficits were assessed by the Bederson score and grip test, and infarct volume was measured as described in Methods. FIG. 19N through FIG. 19Q: WT mice were subjected to tMCAO and then treated with saline, vehicle, or B12-5 (5 μg/g BW). Twenty-three hours later, the neurological deficit and infarct volume were measured as described above. FIG. 19K and FIG. 19O: The data represent the mean±SD (n=7-8). FIG. 19L, FIG. 19M, FIG. 19P, and FIG. 19Q: The bar indicates the median with interquartile range. P values determined by unpaired Student t test (FIG. 19(A-C), FIG. 19K, and FIG. 19O) or Mann-Whitney U test (FIG. 19(E-1), FIG. 19L, FIG. 19M, FIG. 19P, and FIG. 19Q). […]

SMILES | thrombin-induced aggregation (human platelets) | infarct volume (WT (C57BL/6) mice) | neurological deficits (Bederson score, grip test) (WT (C57BL/6) mice) | infarct volume (WT (C57BL/6) mice; listed as B112-5) | neurological deficits (Bederson score, grip test) (WT (C57BL/6) mice; listed as B112-5)
O=C(O)c1cc(N2N=C(C(F)(F)F)/C(=C/c3ccc(-c4ccccc4)o3)C2=O)ccc1Cl [EN460] | abrogated | – | – | – | –
O=C(CSc1nc(O)cc(O)n1)N1c2ccccc2Sc2ccccc21 [B12-5] | – | significantly reduced | ameliorated | significantly reduces; also recorded: reduced | improves
